One data set deals with conscious mice. As to the kind of experiment: Normobaric hypoxia test (96% nitrogen / 4% oxygen) in conscious mice. In kind it is in vivo. The following applies: 50 mg/kg i.p.; for Survival time / response vs control in vivo at 50 mg/kg: 30 min before; for Survival time: three series with controls 6.32, 5.78 and 3.05 min; for response vs control in vivo at 50 mg/kg / responders at 50 mg/kg: Mus musculus, ip; for response vs control in vivo at 50 mg/kg: control = 100, read-out: Survival time, % (relative to control group); for responders at 50 mg/kg: protected = survival twice as long as control group, read-out: Protection. An excerpt:
The antihypoxic activity was investigated on conscious mice under normobaric hypoxia. Five male mice each were placed in a glass cylinder of 3 liters volume, which a gaseous mixture containing 96% of nitrogen and 4% of oxygen was bubbled through. The interval passing from the accomodation of the animals until the cessation of their respiratory movement was registered as survival time. Animals surviving a time of two times as long as that of the control group, were considered to be protected.
Ten animals each were intraperitoneally (i.p.) given a dose of 50 mg/kg of body-weight (hereinafter abbreviated: mg/kg) each of the substances 30 minutes before the accommodation in the glass cylinders. The average time of survival, the percentage of elongation of survival time in comparison to that of the control group and the percentage of the animals protected are shown in Table I.

Data set [1] relates to mice. Nature of the data set: Hypobaric hypoxia test. In kind it is in vivo. The following applies: Mus musculus; oral, mice starved 16 hours, 170 Hgmm, 1 hour after treatment; protected = survival twice control; probit analysis. How it is done: (§1) The antihypoxic effect of the compounds according to the invention was proven also by using the methods of asphyxial anoxia and hypobaric hypoxia. These investigations were carried out by oral administration also proving the oral efficiency which makes possible use of the active compounds according to the invention in a tablet form.
Mice starved for 16 hours were orally treated with the compounds according to the invention, and placed into a desiccator one hour following the treatment. The pressure in the desiccator was reduced to 170 Hgmm within 20 seconds and the survival time was registered from this time until the cessation of respiratory movement. Animals surviving twice as long as the average survival time of the control group were considered to be protected.
(§2) In the cases of both methods, the ED50 values, i.e. the dose protecting half of the treated animals from the hypoxia, were calculated by using probit analysis.

Data set [2] concerns mice. Nature of the data set: Asphyxial anoxia test. In kind it is in vivo. The following applies: Mus musculus; oral, mice starved 16 hours, 1 hour after treatment; protected = survival longer by 30% than control; probit analysis. The method, then: as §1
Mice starved for 16 hours were orally treated with the compounds according to the invention and after one hour, they were placed into well-closed glass bottles of 100 ml volume. The interval passing from closing the bottle until the cessation of the respiratory movement was registered as survival time. Animals surviving longer by 30% than that of average survival time of the control group, were considered to be protected.
as §2

Another data set is described as follows: Toxicity (LD50) on mice. The conditions noted are these: mouse, in vivo. How it is done: The toxicity of the active compound of Example 35a according to the invention was determined on mice.

Like-named read-outs stand apart in the source and are kept apart here.

With `O=C(CCN1CCSC1)c1ccccc1` [Example 1, 1-phenyl-3-(thiazolidinyl)propan-1-one], in the data set with conscious mice, the Survival time came to 9.35 min, the response vs control in vivo at 50 mg/kg was found to be 148% and the responders at 50 mg/kg came out at 30%.
In the case of `COc1ccc(C(=O)CCN2CCSC2)cc1` [Example 8], in the data set with conscious mice, the Survival time is 8.27 min, the response vs control in vivo at 50 mg/kg is 131% and the responders at 50 mg/kg amounted to 20%.
Take `COc1ccc(C(=O)CCN2CCSC2)c(C)c1` [Example 12]: in the data set with conscious mice, the Survival time amounted to 10.28 min, the response vs control in vivo at 50 mg/kg stood at 178% and the responders at 50 mg/kg stood at 40%.
With `O=C(CCN1CCSC1)c1ccc(Cl)cc1` [Example 17], in the data set on mice [1], the ED50 stood at 60 mg/kg. Further, in the data set on conscious mice, the Survival time came out at 11.00 min, the response vs control in vivo at 50 mg/kg is 174% and the responders at 50 mg/kg amounted to 60%. This compound gave an ED50 in the data set on mice [2] of 55 mg/kg.
As to `O=C(CCN1CCSC1)c1ccc(Br)cc1` [Example 18], in the data set on conscious mice, the Survival time came out at 10.58 min, the response vs control in vivo at 50 mg/kg came out at 167% and the responders at 50 mg/kg stood at 50%.
As for `O=C(CCN1CCSC1)c1ccc(Cl)c(Cl)c1` [Example 19], in the data set with conscious mice, the Survival time came out at 7.90 min, the response vs control in vivo at 50 mg/kg was 125% and the responders at 50 mg/kg was determined as 20%.
`O=C(CCN1CCSC1)c1cccc([N+](=O)[O-])c1` [Example 20]: in the data set with conscious mice, the Survival time is 7.85 min, the response vs control in vivo at 50 mg/kg came out at 136% and the responders at 50 mg/kg was found to be 20%.
For the compound `CC(CN1CCSC1)C(=O)c1ccccc1` (stereo not drawn) [Example 22], in the data set with conscious mice, the Survival time turned out to be 9.27 min, the response vs control in vivo at 50 mg/kg was 147% and the responders at 50 mg/kg was determined as 30%.
As for `CC(CN1CCSC1)C(=O)c1ccc(F)cc1` (stereo not drawn) [Example 27], in the data set with conscious mice, the Survival time stood at 5.32 min, the response vs control in vivo at 50 mg/kg amounted to 174% and the responders at 50 mg/kg was determined as 20%.
The corresponding values for `CC(CN1CCSC1)C(=O)c1ccc(Br)cc1` (stereo not drawn) [Example 30] are 8.40 min, 145% and 40%.
Turning to `CSc1ccc(C(=O)CCN2CCSC2)cc1` [Example 34, 1-(4-methylthiophenyl)-3-(3-thiazolidinyl)propan-1-one], in the data set on conscious mice, the Survival time came out at 12.76 min, the response vs control in vivo at 50 mg/kg turned out to be 202% and the responders at 50 mg/kg came out at 70%.
For `O=C(CCN1CCSC1)c1ccc(F)cc1` [Example 35a, 1-(4-fluorophenyl)-3-(3-thiazolidinyl)propan-1-one], the LD50 in “Toxicity (LD50) on mice” (intravenous, read-out: LD50 intravenously) is 108 mg/kg. In “Toxicity (LD50) on mice” (oral, read-out: LD50 orally), the LD50 stood at 646 mg/kg. The 50% effect level in the data set with mice [1] (ED50) was put at a dose of 58.7 mg/kg. In addition, in the data set on conscious mice, the Survival time was found to be 10.75 min, the response vs control in vivo at 50 mg/kg amounted to 186% and the responders at 50 mg/kg is 60%. The same compound gave an ED50 in the data set with mice [2] of 18.3 mg/kg.
For `O=C(CCN1CCSC1)c1cccs1` [Example 37, 1-(2-thienyl)-3-(3-thiazolidinyl)propan-1-one], in the data set with conscious mice, the Survival time turned out to be 12.22 min, the response vs control in vivo at 50 mg/kg came out at 211% and the responders at 50 mg/kg came out at 60%.
The matching figures for `CCc1ccc(C(=O)CCN2CCSC2)s1` [Example 38]: 9.95 min, 172% and 30%.
On to `O=C(CCN1CCSC1)c1ccc(Cl)s1` [Example 39], for which, in the data set on conscious mice, the Survival time amounted to 10.43 min, the response vs control in vivo at 50 mg/kg was 180% and the responders at 50 mg/kg worked out at 40%.
The matching figures for `CC(CN1CCSC1)C(=O)c1cccs1` (stereo not drawn) [Example 41]: 8.91 min, 154% and 20%.
Consider `O=C(CCN1CCCSC1)c1ccc(-c2ccccc2)cc1` [Example 49], for which, in the data set on conscious mice, the Survival time stood at 9.72 min, the response vs control in vivo at 50 mg/kg worked out at 154% and the responders at 50 mg/kg amounted to 30%.
Turning to `COC(=O)C1N(CCC(=O)c2ccc(F)cc2)CSC1(C)C` (stereo not drawn) [Example 70], in the data set with conscious mice, the Survival time amounted to 5.78 min, the response vs control in vivo at 50 mg/kg is 189% and the responders at 50 mg/kg stood at 60%.

Source of the values: patent US5096902A, “Heterocyclic compounds containing nitrogen and sulfur, pharmaceutical compositions containing them and process for preparing same” (Richter Gedeon Vegyeszeti Gyar Rt., priority 1989, dated 1992).
